From patent publication US6737383B1, “Herbicidal oxadiazolidines” (priority 1999, dated 2004)

Legend:
sugar beet = assay: Test B pre/postemergence sugar beet; format: in vivo, Beta vulgaris
How it was run: (§1)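 Herbicidal effect was estimated by eye on a ten-point control scale after plants spent twelve to sixteen days in a greenhouse following soil or foliar treatment. Foliar sprays targeted plants at one to four leaves; all doses were formulated in a non-phytotoxic solvent with surfactant.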

surinam grass = assay: Test B pre/postemergence surinam grass; format: in vivo, Brachiaria decumbens
How it was run: as §1

corn = assay: Test B pre/postemergence corn; format: in vivo, Zea mays
How it was run: as §1

bedstraw = assay: Test B pre/postemergence bedstraw; format: in vivo, Galium aparine
How it was run: as §1

pigweed = assay: Test B pre/postemergence pigweed; format: in vivo, Amaranthus retroflexus
How it was run: as §1

rape = assay: Test B pre/postemergence rape; format: in vivo, Brassica napus
How it was run: as §1

giant foxtail = assay: Test B pre/postemergence giant foxtail; format: in vivo, Setaria faberii
How it was run: as §1

velvetleaf = assay: Test B pre/postemergence velvetleaf; format: in vivo, Abutilon theophrasti
How it was run: as §1

wheat = assay: Test B pre/postemergence wheat; format: in vivo, Triticum aestivum
How it was run: as §1

wild oat = assay: Test B pre/postemergence wild oat; format: in vivo, Avena fatua
How it was run: as §1

soybean = assay: Test B pre/postemergence soybean; format: in vivo, Glycine max
How it was run: as §1

morningglory = assay: Test B pre/postemergence morningglory; format: in vivo, Ipomoea hederacea
How it was run: as §1

purple nutsedge = assay: Test B pre/postemergence purple nutsedge; format: in vivo, Cyperus rotundus
How it was run: as §1

cocklebur = assay: Test B pre/postemergence cocklebur; format: in vivo, Xanthium strumarium
How it was run: as §1

blackgrass = assay: Test B pre/postemergence blackgrass; format: in vivo, Alopecurus myosuroides
How it was run: as §1

crabgrass = assay: Test B pre/postemergence crabgrass; format: in vivo, Digitaria sanguinalis
How it was run: as §1

[1] = Postemergence, Rate 62 g/ha, scale of 0 to 10, 0 is no effect, 10 is complete control
[2] = Postemergence, Rate 500 g/ha, scale 0 to 10, 0 is no effect, 10 is complete control
[3] = Preemergence, Rate 62 g/ha, scale 0 to 10 (0 no effect, 10 complete control)
[4] = Preemergence, Rate 125 g/ha, scale 0 to 10, 0 is no effect, 10 is complete control
[5] = Preemergence, Rate 500 g/ha, scale of 0 to 10 where 0 is no effect and 10 is complete control
[6] = Rate 250 g/ha, Postemergence, scale of 0 to 10 where 0 is no effect and 10 is complete control
[7] = Postemergence, Rate 125 g/ha, scale 0 to 10, 0 is no effect, 10 is complete control

CC(C)N(C(=O)n1oc(=O)n(CCCCF)c1=O)c1ccc(Cl)cc1 [Compound 551]
Sugarbeets plant response rating (sugar beet; [1]): 2 | Plant response rating, Sugarbeets (sugar beet; [2]): 8 | Sugarbeets plant response rating (sugar beet; [3]): 2 | Sugarbeets plant response rating (sugar beet; [4]): 6 | Sugarbeets plant response rating (0 to 10 scale) (sugar beet; Preemergence, Rate 250 g/ha): 7 | Sugarbeets plant response rating (sugar beet; [5]): 9 | Plant response rating, Sugarbeets (sugar beet; [6]): 5 | B. signalgrass plant response rating (surinam grass; [1]): 0 | B. signalgrass plant response rating (surinam grass; [7]): 0 | Plant response rating, B. signalgrass (surinam grass; [2]): 4 | B. signalgrass plant response rating (surinam grass; [3]): 4 | B. signalgrass plant response rating (surinam grass; [4]): 9 | B. signalgrass plant response rating (0 to 10 scale, 0 is no effect, 10 is complete control) (surinam grass; Preemergence, Rate 250 g/ha): 9 | B. signalgrass plant response rating (surinam grass; [5]): 9 | Plant response rating, B. signalgrass (surinam grass; [6]): 2 | Corn plant response rating (corn; [1]): 0 | Corn plant response rating (corn; [7]): 0 | Plant response rating, Corn (corn; [2]): 0 | Corn plant response rating (corn; [3]): 0 | Corn plant response rating (corn; [4]): 0 | Corn plant response rating (0 to 10 scale) (corn; Preemergence, Rate 250 g/ha): 0 | Corn plant response rating (corn; [5]): 5 | Plant response rating, Corn (corn; [6]): 0 | Bedstraw plant response rating (bedstraw; [1]): 0 | Bedstraw plant response rating (bedstraw; [7]): 0 | Plant response rating, Bedstraw (bedstraw; [2]): 9 | Bedstraw plant response rating (bedstraw; [4]): 8 | Bedstraw plant response rating (bedstraw; [5]): 10 | Plant response rating, Bedstraw (bedstraw; [6]): 4 | Redroot pigweed plant response rating (pigweed; [1]): 0 | Plant response rating, Redroot pigweed (pigweed; [2]): 7 | Redroot pigweed plant response rating (pigweed; [3]): 8 | Redroot pigweed plant response rating (pigweed; [4]): 9 | Redroot pigweed plant response rating (0 to 10 scale) (pigweed; Preemergence, Rate 250 g/ha): 10 | Redroot pigweed plant response rating (pigweed; [5]): 10 | Plant response rating, Redroot pigweed (pigweed; [6]): 3 | Rape plant response rating (rape; [1]): 3 | Rape plant response rating (rape; [7]): 7 | Plant response rating, Rape (rape; [2]): 5 | Rape plant response rating (rape; [3]): 0 | Rape plant response rating (rape; [4]): 3 | Rape plant response rating (0 to 10 scale) (rape; Preemergence, Rate 250 g/ha): 3 | Rape plant response rating (rape; [5]): 9 | Plant response rating, Rape (rape; [6]): 7 | Giant foxtail plant response rating (giant foxtail; [1]): 0 | Plant response rating, Giant foxtail (giant foxtail; [2]): 5 | Giant foxtail plant response rating (giant foxtail; [3]): 10 | Giant foxtail plant response rating (giant foxtail; [4]): 10 | Giant foxtail plant response rating (0 to 10 scale) (giant foxtail; Preemergence, Rate 250 g/ha): 10 | Giant foxtail plant response rating (giant foxtail; [5]): 10 | Plant response rating, Giant foxtail (giant foxtail; [6]): 5 | Velvetleaf plant response rating (velvetleaf; [1]): 0 | Plant response rating, Velvetleaf (velvetleaf; [2]): 3 | Velvetleaf plant response rating (velvetleaf; [3]): 0 | Velvetleaf plant response rating (velvetleaf; [4]): 0 | Velvetleaf plant response rating (0 to 10 scale) (velvetleaf; Preemergence, Rate 250 g/ha): 2 | Velvetleaf plant response rating (velvetleaf; [5]): 4 | Plant response rating, Velvetleaf (velvetleaf; [6]): 3 | Wheat plant response rating (wheat; [1]): 0 | Plant response rating, Wheat (wheat; [2]): 3 | Wheat plant response rating (wheat; [3]): 0 | Wheat plant response rating (wheat; [4]): 0 | Wheat plant response rating (0 to 10 scale) (wheat; Preemergence, Rate 250 g/ha): 3 | Wheat plant response rating (wheat; [5]): 6 | Plant response rating, Wheat (wheat; [6]): 0 | Wild oats plant response rating (wild oat; [1]): 0 | Plant response rating, Wild oats (wild oat; [2]): 5 | Wild oats plant response rating (wild oat; [3]): 0 | Wild oats plant response rating (wild oat; [4]): 3 | Wild oats plant response rating (0 to 10 scale) (wild oat; Preemergence, Rate 250 g/ha): 3 | Wild oats plant response rating (wild oat; [5]): 9 | Plant response rating, Wild oats (wild oat; [6]): 0 | Soybean plant response rating (soybean; [1]): 2 | Plant response rating, Soybean (soybean; [2]): 3 | Soybean plant response rating (soybean; [3]): 0 | Soybean plant response rating (soybean; [4]): 0 | Soybean plant response rating (0 to 10 scale) (soybean; Preemergence, Rate 250 g/ha): 0 | Soybean plant response rating (soybean; [5]): 0 | Plant response rating, Soybean (soybean; [6]): 3 | Morningglory plant response rating (morningglory; [1]): 1 | Morningglory plant response rating (morningglory; [7]): 2 | Plant response rating, Morningglory (morningglory; [2]): 3 | Morningglory plant response rating (morningglory; [3]): 0 | Morningglory plant response rating (morningglory; [4]): 0 | Morningglory plant response rating (0 to 10 scale) (morningglory; Preemergence, Rate 250 g/ha): 0 | Morningglory plant response rating (morningglory; [5]): 0 | Plant response rating, Morningglory (morningglory; [6]): 4 | Plant response rating, Nutsedge (purple nutsedge; [2]): 0 | Nutsedge plant response rating (purple nutsedge; [3]): 0 | Nutsedge plant response rating (purple nutsedge; [4]): 0 | Nutsedge plant response rating (0 to 10 scale) (purple nutsedge; Preemergence, Rate 250 g/ha): 0 | Nutsedge plant response rating (purple nutsedge; [5]): 0 | Cocklebur plant response rating (cocklebur; [1]): 0 | Cocklebur plant response rating (cocklebur; [7]): 0 | Plant response rating, Cocklebur (cocklebur; [2]): 0 | Cocklebur plant response rating (cocklebur; [3]): 0 | Cocklebur plant response rating (cocklebur; [4]): 0 | Cocklebur plant response rating (0 to 10 scale) (cocklebur; Preemergence, Rate 250 g/ha): 0 | Cocklebur plant response rating (cocklebur; [5]): 0 | Plant response rating, Cocklebur (cocklebur; [6]): 0 | Blackgrass plant response rating (blackgrass; [1]): 4 | Blackgrass plant response rating (blackgrass; [7]): 7 | Plant response rating, Blackgrass (blackgrass; [2]): 7 | Blackgrass plant response rating (blackgrass; [3]): 3 | Blackgrass plant response rating (blackgrass; [4]): 7 | Blackgrass plant response rating (0 to 10 scale) (blackgrass; Preemergence, Rate 250 g/ha): 9 | Blackgrass plant response rating (blackgrass; [5]): 9 | Plant response rating, Blackgrass (blackgrass; [6]): 7 | Crabgrass plant response rating (crabgrass; [1]): 0 | Crabgrass plant response rating (crabgrass; [7]): 6 | Plant response rating, Crabgrass (crabgrass; [2]): 9 | Crabgrass plant response rating (crabgrass; [3]): 9 | Crabgrass plant response rating (crabgrass; [4]): 9 | Crabgrass plant response rating (0 to 10 scale) (crabgrass; Preemergence, Rate 250 g/ha): 10 | Crabgrass plant response rating (crabgrass; [5]): 10 | Plant response rating, Crabgrass (crabgrass; [6]): 8
